Laboratory results reported in patent US20060293315A1, “Intermediates of novel heterocyclic compounds having antibacterial activity and process for their preparation” (Dr. Reddy's Laboratories Ltd., priority 2001, published 2006).

SMILES | melting point [°C]
COC(=S)NC[C@H]1CN(c2ccc(N3CCOC3=O)c(F)c2)C(=O)O1 [Example 119] | 137
CCOC(=S)NC[C@H]1CN(c2ccc(-n3c(=O)oc4ccccc43)cc2)C(=O)O1 [Example 140] | 147
COC(=S)NC[C@H]1CN(c2ccc(N3CC(=O)N(C)C3)c(F)c2)C(=O)O1 [Example 141] | 218
CC(=O)NC[C@H]1CN(c2ccc(-n3c(=O)oc4ccc(C)cc43)c(F)c2)C(=O)O1 [Example 80] | 202
CC(=O)NC[C@H]1CN(c2ccc(N3CC(=O)N(C)C3)c(F)c2)C(=O)O1 [Example 90] | 230
COC(=S)NC[C@H]1CN(c2cc(F)c(N3CCOC3=O)c(F)c2)C(=O)O1 [Example 130] | 182
COC(=S)NC[C@H]1CN(c2ccc(N3CCOC3=O)c(F)c2)C(=O)O1 [Example 123] | 197
CSC(=S)NC[C@H]1CN(c2cc(F)c(N3CCOC3=O)c(F)c2)C(=O)O1 [Example 115] | 147
CC(=O)NC[C@H]1CN(c2ccc(N3CCN(C)C3=S)c(F)c2)C(=O)O1 [Example 77] | 171
O=C1O[C@@H](CNC(=O)C(F)(F)F)CN1c1ccc(N2CCOC2=O)c(F)c1 [Example 72] | 194
CCOC(=S)NC[C@H]1CN(c2ccc(N3CCN(C)C3=S)c(F)c2)C(=O)O1 [Example 124] | 197
CC(=S)NC[C@H]1CN(c2ccc(N3CCOC3=O)cc2)C(=O)O1 [Example 105] | 195
CCOC(=S)NC[C@H]1CN(c2ccc(N3CCOC3=O)c(F)c2)C(=O)O1 [Example 120] | 208
CC(=O)NC[C@H]1CN(c2ccc(N3CCOC3=O)cc2)C(=O)O1 [Example 88] | 231
CC(=S)NC[C@H]1CN(c2ccc(-n3c(=O)oc4ccccc43)c(F)c2)C(=O)O1 [Example 101] | 137
CCCCCCC(=O)NC[C@H]1CN(c2ccc(N3CCOC3=O)c(F)c2)C(=O)O1 [Example 70] | 131
O=C1OCCN1c1ccc(N2C[C@H](CNC(=S)OCCO)OC2=O)cc1 [Example 135] | 141
CC(=S)NC[C@H]1CN(c2ccc(N3CCN(C)C3=S)c(F)c2)C(=O)O1 [Example 100] | 111
CC(=S)NC[C@H]1CN(c2ccc(N3CCOC3=O)c(C(F)(F)F)c2)C(=O)O1 [Example 102] | 154
CCCC(=O)NC[C@H]1CN(c2ccc(N3CCOC3=O)c(F)c2)C(=O)O1 [Example 68] | 211
CC(=O)NC[C@H]1CN(c2ccc(N3CCSC3=S)c(F)c2)C(=O)O1 [Example 76] | 220
CC(=O)NC[C@H]1CN(c2cc(F)c(N3CCOC3=O)c(F)c2)C(=O)O1 [Example 86] | 219
CCC(=S)NC[C@H]1CN(c2cc(F)c(N3CCOC3=O)c(F)c2)C(=O)O1 [Example 104] | 168
CCOC(=S)NC[C@H]1CN(c2ccc(N3CCOC3=O)cc2)C(=O)O1 [Example 132] | 168
CC(=S)NC[C@H]1CN(c2ccc(N3CCN(c4ccccc4)C3=O)c(F)c2)C(=O)O1 [Example 106] | 165

SMILES | melting point [°C]
CC(C)OC(=S)NC[C@H]1CN(c2ccc(N3CCOC3=O)cc2)C(=O)O1 [Example 138] | 140
CC(=S)NC[C@H]1CN(c2cc(F)c(N3CNC(=O)C3)c(F)c2)C(=O)O1 [Example 108] | 148 to 150
COCCOC(=S)NC[C@H]1CN(c2ccc(N3CCOC3=O)cc2)C(=O)O1 [Example 136] | 149
COC(=O)NC[C@H]1CN(c2ccc(N3CCOC3=O)c(C(F)(F)F)c2)C(=O)O1 [Example 110] | 148
O=C1O[C@@H](CNC(=S)OC(=O)C(F)(F)F)CN1c1ccc(N2CCOC2=O)c(F)c1 [Example 121] | 184
CC(=O)NC[C@H]1CN(c2ccc(N3CCOC3=O)cc2F)C(=O)O1 [Example 85] | 120
COC(=O)NC[C@H]1CN(c2ccc(N3CCOC3=O)cc2)C(=O)O1 [Example 112] | 195
CCOC(=O)C(=O)NC[C@H]1CN(c2ccc(N3CCOC3=O)c(F)c2)C(=O)O1 [Example 73] | 160
CC(=O)NC[C@H]1CN(c2ccc(N3CCN(C)C3=O)c(F)c2)C(=O)O1 [Example 92] | 182
CC(=O)NC[C@H]1CN(c2ccc(-n3c(=O)oc4ccccc43)cc2)C(=O)O1 [Example 89] | 229
CCCOC(=S)NC[C@H]1CN(c2ccc(N3CCN(C)C3=S)c(F)c2)C(=O)O1 [Example 125] | > 200
CC(=O)NC[C@H]1CN(c2ccc(N3CCOC3=O)c(C(F)(F)F)c2)C(=O)O1 [Example 81] | 143
COC(=O)NC[C@H]1CN(c2ccc(N3CC(=O)N(C)C3)c(F)c2)C(=O)O1 [Example 113] | 226
CSC(=S)NC[C@H]1CN(c2ccc(N3CCOC3=O)cc2)C(=O)O1 [Example 114] | 161
CCC(=O)NC[C@H]1CN(c2cc(F)c(N3CCOC3=O)c(F)c2)C(=O)O1 [Example 87] | 224
C=CC(=O)NC[C@H]1CN(c2ccc(N3CCOC3=O)c(C(F)(F)F)c2)C(=O)O1 [Example 84] | 191
NC[C@H]1CN(c2ccc(N3CCOC3=O)c(F)c2)C(=O)O1 [Example 53] | 147
COC(=O)NC[C@H]1CN(c2cc(F)c(N3CCOC3=O)c(F)c2)C(=O)O1 [Example 111] | 157
CC(=S)NC[C@H]1CN(c2ccc(N3CCOC3=O)c(F)c2)C(=O)O1 [Example 98] | 171
CCCCC(=O)NC[C@H]1CN(c2ccc(N3CCOC3=O)c(F)c2)C(=O)O1 [Example 69] | 187
COC(=S)NC[C@H]1CN(c2ccc(-n3c(=O)oc4ccccc43)cc2)C(=O)O1 [Example 139] | 141
O=C1OCCN1c1ccc(N2C[C@H](CNC(=S)OCC(F)(F)F)OC2=O)cc1 [Example 134] | 181
CC(=O)NC[C@H]1CN(c2ccc(-n3c(=O)oc4cc(C)ccc43)c(F)c2)C(=O)O1 [Example 79] | 213
COC(=O)NC[C@H]1CN(c2ccc(N3CCOC3=O)c(F)c2)C(=O)O1 [Example 109] | 153

Continued, values first:

melting point [°C] | SMILES
209 | COC(=S)NC[C@H]1CN(c2ccc(N3CCN(C)C3=O)cc2)C(=O)O1 [Example 142]
158 | COC(=S)NC[C@H]1CN(c2ccc(N3CC(=O)N(Cc4ccc(OC)cc4)C3)c(F)c2)C(=O)O1 [Example 153]
160 | COCN1CN(c2ccc(N3C[C@H](CNC(=S)OC)OC3=O)cc2F)CC1=O [Example 178]
202 to 208 | COC(=S)NC[C@H]1CN(c2ccc(N3CC(=O)N(CO)C3)cc2)C(=O)O1 [Example 157]
174 | COC(=S)NC[C@H]1CN(c2ccc(N3CCN(c4ccccc4)C3=O)c(F)c2)C(=O)O1 [Example 147]
103 | CCN(CC)C(=S)NC[C@H]1CN(c2ccc(N3CCOC3=O)cc2)C(=O)O1 [Example 183]
215 | CCOC(=S)NC[C@H]1CN(c2ccc(N3CCN(c4ccc(F)cc4)C3=O)c(F)c2)C(=O)O1 [Example 150]
184 | COC(=S)NC[C@H]1CN(c2ccc(N3CC(=O)N(CO)C3)c(F)c2)C(=O)O1 [Example 155]
192 | CC(C)OC(=S)NC[C@H]1CN(c2ccc(N3CC(=O)N(Cc4ccccc4)C3)c(F)c2)C(=O)O1 [Example 154]
189 | O=C1OCCN1c1ccc(N2C[C@H](CNC(=S)Nc3ccccn3)OC2=O)cc1 [Example 191]
169 | COc1ccc(CNC(=S)NC[C@H]2CN(c3ccc(N4CCOC4=O)cc3)C(=O)O2)cc1 [Example 186]
195 | COC(=S)NC[C@H]1CN(c2ccc(N3CC(=S)N(C)C3)c(F)c2)C(=O)O1 [Example 177]
146 | COC(=S)NC[C@H]1CN(c2ccc(N3CCN(C)C3=O)c(F)c2)C(=O)O1 [Example 144]
144 | CNC(=S)NC[C@H]1CN(c2ccc(N3CCOC3=O)c(F)c2)C(=O)O1 [Example 193]
159 | O=C1OCCN1c1ccc(N2C[C@H](CNC(=S)N3CCSCC3)OC2=O)cc1 [Example 190]
161 | O=C1OCCN1c1ccc(N2C[C@H](CNC(=S)NCCO)OC2=O)cc1 [Example 189]
205 | COC(=S)NC[C@H]1CN(c2ccc(N3CC(=O)N(C)C3)cc2)C(=O)O1 [Example 143]
92 | NC(=S)NC[C@H]1CN(c2cc(F)c(N3CCOC3=O)c(F)c2)C(=O)O1 [Example 194]
86 | C=CCN1CN(c2ccc(N3C[C@H](CNC(=S)OC)OC3=O)cc2F)CC1=O [Example 161]
176 | COC(=S)NC[C@H]1CN(c2ccc(N3CC(=O)N(Cc4ccccc4)C3)c(F)c2)C(=O)O1 [Example 179]
113 | CNC(=S)NC[C@H]1CN(c2cc(F)c(N3CCOC3=O)c(F)c2)C(=O)O1 [Example 195]
220 | CC(C)OC(=S)NC[C@H]1CN(c2ccc(N3CCN(c4ccc(F)cc4)C3=O)c(F)c2)C(=O)O1 [Example 151]
195 | CCOC(=S)NC[C@H]1CN(c2ccc(N3CCN(c4ccccc4)C3=O)c(F)c2)C(=O)O1 [Example 148]
122 | CCCCN1CN(c2ccc(N3C[C@H](CNC(=S)OC)OC3=O)cc2F)CC1=O [Example 160]
165 | O=C1OCCN1c1ccc(N2C[C@H](CNC(=S)NCc3ccccn3)OC2=O)cc1 [Example 187]
171 | C=CCNC(=S)NC[C@H]1CN(c2ccc(N3CCOC3=O)cc2)C(=O)O1 [Example 184]
154 to 156 | COC(=S)N(C)C[C@H]1CN(c2cc(F)c(N3CNC(=O)C3)c(F)c2)C(=O)O1 [Example 198]
208 | COC(=S)NC[C@H]1CN(c2ccc(N3CCN(c4ccc(F)cc4)C3=O)c(F)c2)C(=O)O1 [Example 149]
161 | CN(C)CCOC(=S)NC[C@H]1CN(c2ccc(N3CCOC3=O)cc2)C(=O)O1 [Example 152]
